Source: patent US8541587B2, “Lysophosphatidic acid receptor antagonists” (Amira Pharmaceuticals, Inc., priority 2011, dated 2013)

Legend:
human LPA2 receptor = molecular target: T1, human LPA2 receptor (Homo sapiens, UniProt Q9HBW0); experiment: LPA2 calcium flux assay (B103 cells transiently expressing human LPA2); type: cell-based; details: read-out: LPA2 Binding IC50
T1 construct: The full-length cDNA fragment for human LPA2 was obtained by PCR from the vector; expressed in transfected cells; host or cells: B103 cells (pCDNA3.1, transient, lipofectamine 2000)
T1 sequence (Q9HBW0 whole entry, the tested form may be a part): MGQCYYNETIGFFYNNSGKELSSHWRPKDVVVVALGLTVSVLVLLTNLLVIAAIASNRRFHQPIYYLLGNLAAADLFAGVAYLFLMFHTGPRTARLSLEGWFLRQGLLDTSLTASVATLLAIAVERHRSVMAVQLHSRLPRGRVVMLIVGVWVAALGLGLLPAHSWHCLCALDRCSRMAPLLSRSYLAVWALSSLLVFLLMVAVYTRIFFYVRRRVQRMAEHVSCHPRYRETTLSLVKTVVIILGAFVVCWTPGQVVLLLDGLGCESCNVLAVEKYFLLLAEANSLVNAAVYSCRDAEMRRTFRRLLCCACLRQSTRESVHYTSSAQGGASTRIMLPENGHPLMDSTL
Procedure: A vector containing the human LPA2 receptor cDNA was obtained from the Missouri S&T cDNA Resource Center (www.cdna.org). The full-length cDNA fragment for human LPA2 was obtained by PCR from the vector. The nucleotide sequence of the cloned human LPA2 was determined by sequencing and confirmed to be identical to the published human LPA2 sequence (NCBI accession number NM_004720). The cDNA was cloned into the pCDNA3.1 expression plasmid and transfected into B103 cells (Invitrogen Corp., USA) by seeding cells in a 96-well poly-D-lysine coated plate at 30,000-35,000 cells per well together with 0.2 μl lipofectamine 2000 and 0.2 μg of the LPA2 expression vector. Cells were cultured overnight in complete media before being assayed for LPA-induced Ca-influx.
(§1) Following an overnight culture with lipofectamine 2000 and the LPA2 expression vector, the B103 cells are washed once with PBS then serum starved for 4 hours. A calcium indicator dye (Calcium 4, Molecular Devices) in assay buffer (HBSS with Ca^2+ and Mg^2+ and containing 20 mM Hepes and 0.3% fatty-acid free human serum albumin) is added to each well and incubation continued for 1 hour at 37° C. 10 μl of test compounds in 2.5% DMSO are added to the cells and incubation continued at room temperature for 30 minutes. Cells are the stimulated by the addition of 10 nM LPA and intracellular Ca^2+ measured using the Flexstation 3 (Molecular Devices). IC50s are determined using Graphpad prism analysis of drug titration curves.

human LPA3 receptor = molecular target: T2, human LPA3 receptor (Homo sapiens, UniProt Q9UBY5); experiment: LPA3 calcium flux assay (CHO cells stably expressing human LPA3); type: cell-based; details: read-out: LPA3 Binding IC50
T2 construct: The full-length cDNA fragment for human LPA3 was obtained by PCR from the vector; expressed in transfected cells
T2 sequence (Q9UBY5 1-353): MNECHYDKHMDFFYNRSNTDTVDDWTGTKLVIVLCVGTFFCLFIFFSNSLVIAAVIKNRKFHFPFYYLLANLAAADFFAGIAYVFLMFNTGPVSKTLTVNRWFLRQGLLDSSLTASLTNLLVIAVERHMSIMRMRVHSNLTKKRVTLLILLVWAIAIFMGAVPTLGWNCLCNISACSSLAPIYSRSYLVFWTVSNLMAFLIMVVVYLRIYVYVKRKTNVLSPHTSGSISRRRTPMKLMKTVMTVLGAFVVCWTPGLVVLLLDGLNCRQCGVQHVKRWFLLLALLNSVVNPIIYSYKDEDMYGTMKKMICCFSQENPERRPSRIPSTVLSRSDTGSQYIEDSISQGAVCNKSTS
Procedure: A vector containing the human LPA3 receptor cDNA was obtained from the Missouri S&T cDNA Resource Center (www.cdna.org). The full-length cDNA fragment for human LPA3 was obtained by PCR from the vector. The nucleotide sequence of the cloned human LPA3 was determined by sequencing and confirmed to be identical to the published human LPA3 sequence (NCBI accession number NM_012152). The cDNA was cloned into the pCDNA5/FRT expression plasmid and transfected in CHO cells using lipofectamine 2000 (Invitrogen Corp., USA). Clones stably expressing human LPA3 were selected using hygromycin and identified as cells that show Ca-influx in response to LPA.
as §1, with “Human LPA1 or LPA3 expressing CHO cells are seeded at 20,000-45,000 cells per well in a 96-well poly-D-lysine coated plate one or two days before” for “Following an overnight culture with lipofectamine 2000 and”, “assay. Prior to” for “LPA2 expression vector,”, “assay, the” for “B103”, “PBS and” for “PBS”, “cultured in serum-free media overnight. On the day of the assay, a” for “serum starved for 4 hours. A”

[1] = test system: A2058 human melanoma cells; experiment: LPA1 chemotaxis assay; type: cell-based; details: 100 nM LPA, read-out: IC50, inhibition of LPA-driven chemotaxis
Procedure: Chemotaxis of the A2058 human melanoma cells was measured using the Neuroprobe ChemoTx® System plates (8 μm pore size, 5.7 mm diameter sites). The filter sites were coated with 0.001% fibronectin (Sigma) in 20 mM Hepes, pH 7.4 and allowed to dry. A2058 cells were serum-starved for 24 hours, then harvested with Cell Stripper and resuspended in DMEM containing 0.1% fatty-acid-free bovine serum albumin (BSA) to a concentration of 1×10^6/ml. Cells were mixed with an equal volume of test compound (2×) in DMEM containing 0.1% fatty-acid-free BSA and incubated at 37° C. for 15 minutes. LPA (100 nM in DMEM containing 0.1% fatty-acid-free BSA) or vehicle was added to each well of the lower chamber and 50 μl of the cell suspension/test compound mix was applied to the upper portion of the ChemoTx plate. Plates were incubated at 37° C. for three hours and then the cells removed from the upper portion by rinsing with PBS and scraping. The filter was dried then stained with HEMA 3 Staining System (Fisher Scientific). The absorbance of the filter was read at 590 nm and IC50s were determined using Symyx Assay Explorer.

human LPA1 receptor = molecular target: T3, human LPA1 receptor (Homo sapiens, UniProt Q92633); experiment: LPA1 binding (GTPγS binding assay, membranes of CHO cells expressing human LPA1); type: biochemical; details: 900 nM LPA, [35S]-GTPγS
T3 construct: the full-length cDNA for human LPA1 was obtained by PCR of the reverse transcription reaction; expressed in transfected cells
T3 sequence (Q92633 whole entry): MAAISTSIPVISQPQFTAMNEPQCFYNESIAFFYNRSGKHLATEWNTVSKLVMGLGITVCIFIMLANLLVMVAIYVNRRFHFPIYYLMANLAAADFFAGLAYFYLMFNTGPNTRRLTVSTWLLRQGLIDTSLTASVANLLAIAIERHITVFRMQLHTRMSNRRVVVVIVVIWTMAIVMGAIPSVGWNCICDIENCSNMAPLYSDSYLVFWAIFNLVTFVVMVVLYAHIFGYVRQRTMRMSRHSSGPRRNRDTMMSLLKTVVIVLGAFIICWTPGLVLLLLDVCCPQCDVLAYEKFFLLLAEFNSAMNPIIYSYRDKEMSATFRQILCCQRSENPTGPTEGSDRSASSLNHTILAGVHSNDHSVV
Procedure: A 1.1 kb cDNA encoding the human LPA1 receptor was cloned from human lung. Human lung RNA (Clontech Laboratories, Inc. USA) was reverse transcribed using the RETROscript kit (Ambion, Inc.) and the full-length cDNA for human LPA1 was obtained by PCR of the reverse transcription reaction. The nucleotide sequence of the cloned human LPA1 was determined by sequencing and confirmed to be identical to the published human LPA1 sequence (An et al. Biochem. Biophys. Res. Commun. 231:619 (1997). The cDNA was cloned into the pCDNA5/FRT expression plasmid and transfected in CHO cells using lipofectamine 2000 (Invitrogen Corp., USA). Clones stably expressing human LPA1 were selected using hygromycin and identified as cells that show Ca-influx in response to LPA.
The ability of a compound to inhibit binding of GTP to LPA1 is assessed via a membrane GTPγS assay. CHO cells stably expressing the recombinant human LPA1 receptor are resuspended in 10 mM Hepes, 7.4 containing 1 mM DTT, lysed and centrifuged at 75,000×g to pellet the membranes. The membranes are resuspended in 10 mM Hepes, 7.4 containing 1 mM DTT and 10% glycerol. Membranes (˜25 μg per well) are incubated in 96-well plates with 0.1 nM [^35S]-GTPγS, 900 nM LPA, 5 μM GDP, and test compound in Assay Buffer (50 mM Hepes, pH 7.4, 100 mM NaCl, 10 mM MgCl2, 50 μg/ml saponin and 0.2% fatty-acid free human serum albumin) for 30 minutes at 30° C. The reactions are terminated by rapid filtration through Whatman GF/B glass fibre filter plates. The filter plates are washed 3 times with 1 ml cold Wash Buffer (50 mM Hepes, 7.5, 100 mM NaCl and 10 mM MgCl2) and dried. Scintillant is then added to the plates and the radioactivity retained on the filters is determined on a Packard TopCount (Perkin Elmer). Specific binding is determined as total radioactive binding minus non-specific binding in the absence of the ligand (900 nM LPA). IC50s were determined using Graphpad prism analysis of drug titration curves.

Row | IC50 (human LPA2 receptor) [nM] | IC50 (human LPA3 receptor) [nM] | IC50 [1] [nM] | IC50 (human LPA1 receptor) [nM] | Structure (SMILES)
1 | < 300 | < 300 | < 500 | < 300 | Cc1ccccc1-c1cccc(Nc2c(C)noc2-c2ccc(-c3ccc(C4(C(=O)O)CC4)cc3)cc2)n1 [Compound 1, 1-(4′-{3-Methyl-4-[6-(2-methyl-phenyl)-pyridin-2-ylamino]-isoxazol-5-yl}-biphenyl-4-yl)-cyclopropanecarboxylic acid]
2 | < 300 | < 300 | < 500 | < 300 | Cc1cccc(-c2cccc(Nc3c(C)noc3-c3ccc(-c4ccc(C5(C(=O)O)CC5)cc4)cc3)n2)c1 [Compound 2, 1-(4′-{3-Methyl-4-[6-(3-methyl-phenyl)-pyridin-2-ylamino]-isoxazol-5-yl}-biphenyl-4-yl)-cyclopropanecarboxylic acid]
3 | < 300 | < 300 | < 500 | < 300 | Cc1ccc(-c2cccc(Nc3c(C)noc3-c3ccc(-c4ccc(C5(C(=O)O)CC5)cc4)cc3)n2)cc1 [Compound 3, 1-(4′-{3-Methyl-4-[6-(4-methyl-phenyl)-pyridin-2-ylamino]-isoxazol-5-yl}-biphenyl-4-yl)-cyclopropanecarboxylic acid]
4 | < 300 | < 300 | < 500 | < 300 | Cc1ccccc1-c1cncc(Nc2c(C)noc2-c2ccc(-c3ccc(C4(C(=O)O)CC4)cc3)cc2)c1 [Compound 4, 1-(4′-{3-Methyl-4-[5-(2-methyl-phenyl)-pyridin-3-ylamino]-isoxazol-5-yl}-biphenyl-4-yl)-cyclopropanecarboxylic acid]
5 | < 300 | < 300 | < 500 | < 300 | Cc1cccc(-c2cncc(Nc3c(C)noc3-c3ccc(-c4ccc(C5(C(=O)O)CC5)cc4)cc3)c2)c1 [Compound 5, 1-(4′-{3-Methyl-4-[5-(3-methyl-phenyl)-pyridin-3-ylamino]-isoxazol-5-yl}-biphenyl-4-yl)-cyclopropanecarboxylic acid]
6 | < 300 | < 300 | < 500 | < 300 | Cc1ccc(-c2cncc(Nc3c(C)noc3-c3ccc(-c4ccc(C5(C(=O)O)CC5)cc4)cc3)c2)cc1 [Compound 6, 1-(4′-{3-Methyl-4-[5-(4-methyl-phenyl)-pyridin-3-ylamino]-isoxazol-5-yl}-biphenyl-4-yl)-cyclopropanecarboxylic acid]
7 | < 300 | < 300 | – | < 300 | Cc1cccc(-c2cccc(Nc3c(C)noc3-c3ccc(-c4ccc(C5(C(=O)NS(C)(=O)=O)CC5)cc4)cc3)n2)c1 [Compound 8, N-(1-{4′-[3-Methyl-4-(6-(3-methyl-phenyl)-pyridin-2-ylamino)-isoxazol-5-yl]-biphenyl-4-yl}-cyclopropanecarbonyl)-methanesulfonamide]
8 | < 300 | < 300 | – | < 300 | Cc1cccc(-c2cncc(Nc3c(C)noc3-c3ccc(-c4ccc(C5(C(=O)NS(C)(=O)=O)CC5)cc4)cc3)c2)c1 [Compound 11, N-(1-{4′-[3-Methyl-4-(5-(3-methyl-phenyl)-pyridin-3-ylamino)-isoxazol-5-yl]-biphenyl-4-yl}-cyclopropanecarbonyl)-methanesulfonamide]
